# How the values were obtained:
# Type in all cases: cell-based, human
# LNCaP cells [1] = assay: MTT assay, LNCaP; conditions: for IC50: 72 h, MTT, mean ± SD; for SI LNCaP: SI = IC50 normal cell line (RWPE-1)/IC50 cancer cell line
# Protocol: (§1) MTT analysis was performed as described previously.
# (§2) Cell absorbance results were substituted into the formula for the relative MTT level (%). It allows to calculate the viability of cells exposed to the test compounds. Cell viability is the percentage of MTT reduction in cells to which the test compounds were added compared to the control sample, where only the medium was added to the cells.
# (§3) The relative MTT level was calculated using the formula: life time [100%] = A/B × 100% where: A—the test sample absorbance; B—the control sample absorbance.
# (§4) The statistical analysis was performed using the Statistica 13.0 (StatSoft, Inc, Tulsa, OK, USA) program. Comparison between studied groups was performed by the paired Student’s t-test. Results were expressed as means ± SD, and considered statistically significant at p < 0.05. All data were calculated from 3 separate experiments. IC50 values were calculated using GraphPad Prism 6 software (GraphPad Software, San Diego, CA, USA).
# DU-145 cells [2] = assay: MTT assay, DU-145; conditions: for IC50: MTT, 72 h, mean ± SD; for SI DU-145: SI = IC50 normal cell line (RWPE-1)/IC50 cancer cell line
# Protocol: as §1, §2, §3, §4
# PC3 cells = assay: MTT assay, PC3; conditions: SI = IC50 normal cell line (RWPE-1)/IC50 cancer cell line
# Protocol: as §1, §2, §3, §4
# RWPE-1 cells [3] = assay: MTT assay, normal RWPE-1; conditions: mean ± SD
# Protocol: as §1, §2, §3, §4
# LNCaP cells [4] = assay: LDH test, LNCaP; conditions: 72 h; tested at 10-60 µM, concentration of quoted value not stated
# Protocol: (§5) Lactate dehydrogenase (LDH) as a cytosolic enzyme determined in culture medium is a marker of cell death. The LDH activity determination was performed after 72 h incubation of cells (1 × 10^4 cells per well) in 96-well plates with the selected conjugates of gradually decreasing concentration according to the procedure mentioned at earlier study by Chrzanowska et al.. The cytotoxicity of test compounds was expressed as % of LDH released from test cells. This parameter is calculated using the formula: cytotoxicity = [A test sample − A “low control”]/[A “high control” − A “low control”] where: A—absorbance, “Low control”—cells in DMEM medium with 2% FBS, “High control”—cells in DMEM with 2% FBS with 1% Triton X-100.
# DU145 cells = assay: LDH test, DU145; conditions: 72 h; tested at 10-60 µM, concentration of quoted value not stated
# Protocol: as §5
# RWPE-1 cells [5] = assay: Apoptosis detection (Annexin V/7-AAD flow cytometry), RWPE-1; conditions: IC50 concentration, 72 h, % of cells
# Protocol: (§6) Then, a commercially available kit (FITC:Annexin V Apoptosis Detection Kit I; BD Biosciences Pharmingen. San Jose, CA, USA) was used. The medium was removed from the plates and approximately 1 mL of PBS was added to the wells for rinsing, followed by 0.7 mL of trypsin, and left for 3 min. Then, the plate wells were washed twice with 0.5 mL PBS with 2% FBS and next the entire content of the given walls was transferred to test tubes. The tubes were centrifuged for 7 min in a centrifuge at 1700 rpm. The supernatant solution was removed. […] After this time, 0.4 mL of PBS with FBS was added to the tubes and mixed again. […] Annexin V-reactive cells, but not 7-AAD-reactive cells were in the early stage of apoptosis, while cells reactive with both reagents were in late-stage apoptosis or were dead.
# LNCaP cells [6] = assay: Apoptosis detection (Annexin V/7-AAD flow cytometry), LNCaP; conditions: IC50 concentration, 72 h, % of cells
# Protocol: as §6
# DU-145 cells [7] = assay: Apoptosis detection (Annexin V/7-AAD flow cytometry), DU-145; conditions: IC50 concentration, 72 h, % of cells
# Protocol: as §6
# [8] = test system: IL-6 release by LNCaP cells; assay: Interleukin-6 ELISA, LNCaP; conditions: IC50 concentration, 72 h; control 40.1 pg/mL
# Protocol: (§7) The sandwich ELISA assay is used to confirm the presence of interleukin 6 (IL-6) in the test cell line supernatant. Interleukin IL-6 ELISA kit was purchased from Diaclone SAS (Besancon Cedex, France). […] Before starting the test, a standard curve was prepared. An amount of 100 μL of test supernatant samples from the RWPE-1, LNCaP and DU145 cell lines incubated with the tested compounds, control solutions and blank were added to the plate’s wells. Then, 50 µL of diluted biotinylated anti-human interleukin-6 antibody was added to each well. The prepared plate was incubated at room temperature for one hour. At the end of this time, the solution in the plate wells was decanted and rinsed with the washing solution. After repeating the procedure three times, 100 μL solution of streptavidin covalently bound to horseradish peroxidase (HRP) was added to the wells. Then, the plates were incubated for 30 min. The next step was to remove the solution and rinse the plates three times. After adding 100 μL of tetramethylbenzidine (TMB) solution to each well, the plates were incubated for 15 min in the dark. In order to stop the reaction, 100 μL of H2SO4 solution were added. The absorbance of the tested samples was read using a spectrophotometer at 450 nm (Microplate Spectrophotometer Thermo Scientific™ Multiskan™ GO).
# [9] = test system: IL-6 release by DU145 cells; assay: Interleukin-6 ELISA, DU145; conditions: IC50 concentration, 72 h; control 134.475 pg/mL
# Protocol: as §7
SMILES,"IC50 (LNCaP cells [1]; Homo sapiens, LNCaP) [µM]",SI LNCaP (LNCaP cells [1]),"IC50 (DU-145 cells [2]; Homo sapiens, DU-145, 72 h) [µM]",SI DU-145 (DU-145 cells [2]),SI PC3 (PC3 cells),"IC50 (RWPE-1 cells [3]; Homo sapiens, RWPE-1, 72 h) [µM]",IC50 (LNCaP cells [1]) [µM],IC50 (DU-145 cells [2]) [µM],"released lactate dehydrogenase, LNCaP (LNCaP cells [4])","released lactate dehydrogenase, DU145 (DU145 cells)","Early Apoptosis (%), RWPE-1 (RWPE-1 cells [5]) [%]","Late apoptosis (%), RWPE-1 (RWPE-1 cells [5]) [%]","Early Apoptosis (%), LNCaP (LNCaP cells [6]) [%]","Late apoptosis (%), LNCaP (LNCaP cells [6])","Late apoptosis (%), LNCaP (LNCaP cells [6]; listed as CP) [%]","Early Apoptosis (%), DU145 (DU-145 cells [7]) [%]","Late apoptosis (%), DU145 (DU-145 cells [7]) [%]","IL-6 concentration, LNCaP [8] [pg/mL]","IL-6 concentration, DU145 [9] [pg/mL]",IC50 (RWPE-1 cells [3]; 72 h) [µM]
COc1cccc2c1C(=O)c1c(O)c3c(c(O)c1C2=O)C[C@@](O)(C(=O)CO)C[C@@H]3O[C@H]1C[C@H](N)[C@H](O)[C@H](C)O1 [Doxorubicin],0.48 ± 0.21,1.3,0.59 ± 0.14,1.1,2,0.65 ± 0.1,,,,,,,,,,,,,,
O=C(O)c1cn(C2CC2)c2cc(N3CCNCC3)c(F)cc2c1=O [Ciprofloxacin],> 70,,> 70,,,72.1 ± 5.2,71.2 ± 3.8,70.5 ± 3.6,18.5–24.6%,18.5–24.6%,2.9,1.4,26.8,did not affect the late apoptosis,0.7,20.8,0.3,28.7,119.72,
N.N.[Cl][Pt][Cl] [Cisplatin],,1.5,,2,1.78,,1.78 ± 0.74,1.36 ± 0.69,,,,,,,,,,,,2.69 ± 1.1
